Entries after “also recorded” stand apart in the source; their conditions may differ.
Assays:
[1] = test system: sorting reaction (sortase cleavage of Seb-Spa490-524 P2 precursor at the LPXTG motif); type: cell-based, S. aureus OS2
[2] = test system: S. aureus OS2 (pSeb-Spa490-524); type: cell-based
[3] = molecular target: sortase (Staphylococcus aureus, UniProt Q2FV99); type: biochemical; settings: pre-incubation of staphylococcal extracts with 5 mM MTSET
[4] = molecular target: T1, SrtADN (Staphylococcus aureus, UniProt Q2FV99); type: biochemical, S. aureus; settings: 5 mM MTSET or 5 mM pHMB, 5 μM SrtADN
T1 sequence (Q2FV99 26-206): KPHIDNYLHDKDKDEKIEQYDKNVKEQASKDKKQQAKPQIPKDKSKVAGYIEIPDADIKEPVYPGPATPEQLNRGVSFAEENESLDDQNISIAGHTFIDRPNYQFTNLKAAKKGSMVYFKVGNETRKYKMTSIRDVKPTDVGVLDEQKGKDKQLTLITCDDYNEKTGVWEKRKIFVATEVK

[5] = test system: cell wall sorting reaction (surface protein anchoring); type: cell-based, S. aureus OS2
[6] = test system: cell wall synthesis; type: cell-based, staphylococci (S. aureus OS2)
[7] = test system: wild-type staphylococci, strains SM317 and SM329; type: cell-based, S. aureus
[8] = molecular target: T1, SrtADN; type: biochemical, S. aureus; settings: absence of peptidoglycan substrate
Source text: The N-terminal membrane anchor segment of […] (residues 2-25) were replaced with a six-histidine tag ([…]). In the absence of the peptidoglycan substrate, SrtA DN catalyzes peptide bond hydrolysis and cleaves LPETG peptide, presumably between the threonine and the glycine (Ton-That et al., 2000).

[9] = test system: staphylococci; type: cell-based, S. aureus OS2

Chain of sortase (Q2FV99 whole entry): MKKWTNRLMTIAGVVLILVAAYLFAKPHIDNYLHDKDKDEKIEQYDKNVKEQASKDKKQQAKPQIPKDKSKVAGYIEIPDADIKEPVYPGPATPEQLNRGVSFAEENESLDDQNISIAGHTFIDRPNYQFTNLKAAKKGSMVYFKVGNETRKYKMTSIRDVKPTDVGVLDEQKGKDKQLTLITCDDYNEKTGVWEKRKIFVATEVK

Compound: O[C@H](CS)[C@H](O)CS (racemic) [dithiothreitol (DTT), dithiothreitol]
- interference with cleavage of sorting signals at the LPXTG motif / cell wall sorting (in words) [1]: did not affect the sorting reaction

Compound: OCCS [2-mercaptoethanol]
- interference with cleavage of sorting signals at the LPXTG motif / cell wall sorting (in words) [1]: did not affect the sorting reaction

Compound: CS(=O)(=O)SCCS(=O)(=O)O [(2-sulfonatoethyl)methanethiosulfonate]
- interference with cleavage of sorting signals at the LPXTG motif / cell wall sorting (in words) [1]: interfered with sorting albeit not as effectively as MTSET

Compound: CCN1C(=O)C=CC1=O [N-ethylmaleimide]
- interference with cleavage of sorting signals at the LPXTG motif / cell wall sorting (in words) [1]: did not

Compound: C[N+](C)(C)CCSS(C)(=O)=O [[2-(trimethylammonium)ethyl]methanethiosulfonate]
- interference with cleavage of sorting signals at the LPXTG motif / cell wall sorting (in words) [1]: interfered with the cleavage of sorting signals at the LPXTG motif
- incorporation of [35S]methionine by staphylococci [2]: prevented incorporation
- protein export (Sec-dependent export of P1 precursor) [2]: remained unaltered
- inhibition of LPXTG peptide cleavage [3]: inhibited
- inhibition of LPXTG peptide cleavage [4]: inhibited; also recorded: abolished all enzymatic activity

Compound: NC(=O)CI [iodoacetamide]
- interference with cleavage of sorting signals at the LPXTG motif / cell wall sorting (in words) [1]: did not

Compound: O=C(O)CI [iodoacetic acid]
- interference with cleavage of sorting signals at the LPXTG motif / cell wall sorting (in words) [1]: did not

Compound: CN[C@H](CC(C)C)C(=O)N[C@H]1C(=O)N[C@@H](CC(N)=O)C(=O)N[C@H]2C(=O)N[C@H]3C(=O)N[C@H](C(=O)N[C@H](C(=O)O)c4cc(O)cc(O)c4-c4cc3ccc4O)[C@H](O)c3ccc(c(Cl)c3)Oc3cc2cc(c3O[C@@H]2O[C@H](CO)[C@@H](O)[C@H](O)[C@H]2O[C@H]2C[C@](C)(N)[C@H](O)[C@H](C)O2)Oc2ccc(cc2Cl)[C@H]1O [vancomycin]
- [P2]/[M] [5]: 0.47 ± 0.04
- effect on rate of cell wall sorting (P2 precursor accumulation), in words [5]: led to a steady accumulation of P2 precursor
- fold inhibition of cell wall synthesis [6]: 9.5 fold
- inhibition of cell wall synthesis (lysine/leucine ratio) [6]: 20 fold

Compound: lysostaphin
- growth inhibition by lysostaphin [7]: inhibited growth of wild-type staphylococci

Compound: methylmethane thiosulfonate
- inhibition of LPETG peptide cleavage (peptide bond hydrolysis) [8]: inhibited

Compound: moenomycin
- [P2]/[M] [5]: 0.24 ± 0.04
- effect on rate of cell wall sorting (P2 precursor accumulation), in words [5]: similar, albeit weaker effect
- fold inhibition of cell wall synthesis [6]: 1.6 fold
- growth rate of staphylococci [9]: reduced the growth rate

Compound: p-hydroxymercuribenzoic acid [p-hydroxymercuribenzoic acid (pHMB)]
- interference with cleavage of sorting signals at the LPXTG motif / cell wall sorting (in words) [1]: displayed an inhibitory effect
- inhibition of LPXTG peptide cleavage [4]: inhibited

Compound: penicillin
- [P2]/[M] [5]: 0.10 ± 0.01
- effect on rate of cell wall sorting (P2 precursor accumulation), in words [5]: did not alter the rate of cell wall sorting
- fold inhibition of cell wall synthesis [6]: 3.3 fold
- growth rate of staphylococci [9]: reduced the growth rate

From patent publication US7101692B2 (priority 1999, dated 2006)
